This is an account of results in patent US20230054318A1, “PERSONALIZED TUMOR VACCINE AND USE THEREOF FOR CANCER IMMUNOTHERAPY” (priority 2019, published 2023).

The data set is described as follows: Human Equivalent Dose (HED) calculation based on body surface area. To be noted: for Animal NOAEL: mouse (~20 g). An excerpt:
Provided herein are methods for calculating HED of the MBTA components based on body surface area.
See details from: Nair A B, Jacob S. A simple practice guide for dose conversion between animals and human. J Basic Clin Pharma 2016; 7:27-31
A formula to calculate HED is shown as follows:
HED(mg/kg)=Animal dose(mg/kg)Animal Km/Human Km

A word on the NOAEL: it is the highest dose or exposure tested at which no adverse effect was seen. For the compound `CCOCc1nc2c(N)nc3ccccc3c2n1CC(C)(C)O` [R-848, Resiquimod, reference compound], the NOAEL (mouse) is 1.2 mg/kg.
Regarding “Lipoteichoic acid [LTA, reference compound]”, the “Animal NOAEL” value is reported as 1.2 mg/kg.
For the compound Mannan, the “HED/Safety Factor (10)” value is 0.3851 mg/kg; the “Maximum Recommended Starting Dose (MRSD, assuming 60 kg adult)” value is listed as 23.11 mg/day; the “Animal NOAEL” value is given as 47.5 mg/kg. Further, for the setting “Mouse Km=3, Human Km=37”, the HED is listed as 3.851 mg/kg.
